Patent US20140329914A1, “Amphiphilic Peptides for Thoracic Air Leakage Occlusion” (3-D Matrix Ltd., priority 2011, published 2014)

Experiments:
[1] = in vivo
Procedure: All animals were weighed with a digital platform scale (DUE600ST/M3s-A, Mettler Toledo Ltd.) on the day of operation, 5 days post-operation, and the day of autopsy.
Food consumption was checked every day. Any remaining amount of food was weighed with a digital platform scale (DUE600ST/ID3s-A, Mettler Toledo Ltd.) when present. If there was no uneaten diet, food consumption was recorded as 500 g.

[2] = set-up: species or system miniature swine (Gottingen); settings: in vivo
Procedure: Blood for hematological examination was collected by catheter on the day of operation, 3 days after operation, and 7 days after operation, and the day of necropsy. Blood was collected into EDTA-2K coated blood collection tubes (VP-DK052K05, TERUMO Ltd.). Red blood cell count (RBC), white blood cell count (WBC), hemoglobin concentration (HGB), hematocrit (HCT), and platelet count (PLT) were measured using a multi-channel blood cell counter (Sysmex K-4500, Sysmex

[3] = Blood biochemical examination; type: in vivo, miniature swine (Gottingen)
Procedure: Blood for biochemical examination was centrifuged at 3,000 rpm at 4° C. for 15 min to obtain serum samples used to measure AST, ALT, ALP, total protein (TP), albumin (Alb), protein fraction (alb), alpha 1 globulin (α1-glb), alpha 2 globulin (α-glb), beta globulin (β-glb), gamma globulin (γ-glb), albumin/globulin ratio (A/G), total bilirubin (T-Bil), urea nitrogen (UN), creatinine (CRE), glucose (Glu), total cholesterol (T-Cho), triglycerides (TG), sodium, potassium, chloride, calcium, inorganic phosphate (IP), and C-reactive protein (CRP).

CC(=O)N[C@@H](CCCNC(=N)N)C(=O)N[C@@H](C)C(=O)N[C@@H](CC(=O)O)C(=O)N[C@@H](C)C(=O)N[C@@H](CCCNC(=N)N)C(=O)N[C@@H](C)C(=O)N[C@@H](CC(=O)O)C(=O)N[C@@H](C)C(=O)N[C@@H](CCCNC(=N)N)C(=O)N[C@@H](C)C(=O)N[C@@H](CC(=O)O)C(=O)N[C@@H](C)C(=O)N[C@@H](CCCNC(=N)N)C(=O)N[C@@H](C)C(=O)N[C@@H](CC(=O)O)C(=O)N[C@@H](C)C(N)=O [RADA16, Ac-(RADA)4-CONH2]
body weight and food intake [1]: generally maintained
general condition [1]: good general condition
WBC change [2]: elevated level of WBC
CRE ([3]; AD3: 3 days after treatment, per animal and Mean (n=3)): 1.12 mg/dL
CRP change ([3]; in vivo): elevated level of CRP
